Measured values: patent US20240368135A1 (VERTEX PHARMACEUTICALS INCORPORATED, priority 2021, published 2024)
Read-outs that look alike come from different tables or passages of the source.

Target: human NaV 1.8 (Homo sapiens, UniProt Q9Y5Y9)
Experiment: E-VIPR assay detecting and measuring NaV inhibition properties
Format: cell-based
Settings: HEK cells expressing truncated human NaV 1.8
Summary of the method: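 HEK cells expressing truncated, fully active human NaV1.8, with KIR2.1 BacMam co-transduction, were loaded with CC2-DMPE/DiSBAC6(3) voltage-sensing dyes for 20 min at room temperature. Compounds were tested in 11-point 3-fold dilutions (300 nM top final), optionally with 25% human serum, under electrical stimulation with FRET read-out.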

[1] = no human serum, read-out: IC50 in the E-VIPR Assay

Sequence of human NaV 1.8 (Q9Y5Y9 126-399 limits assumed): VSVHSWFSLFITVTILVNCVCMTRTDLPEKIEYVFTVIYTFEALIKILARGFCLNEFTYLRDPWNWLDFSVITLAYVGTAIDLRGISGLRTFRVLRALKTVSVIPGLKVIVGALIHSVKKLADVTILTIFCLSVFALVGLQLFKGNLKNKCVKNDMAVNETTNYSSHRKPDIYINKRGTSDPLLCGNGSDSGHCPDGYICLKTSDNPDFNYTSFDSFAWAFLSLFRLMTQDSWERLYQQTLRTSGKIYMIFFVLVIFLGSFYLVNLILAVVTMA
Sequence of human NaV 1.8 (Q9Y5Y9 660-890 limits assumed): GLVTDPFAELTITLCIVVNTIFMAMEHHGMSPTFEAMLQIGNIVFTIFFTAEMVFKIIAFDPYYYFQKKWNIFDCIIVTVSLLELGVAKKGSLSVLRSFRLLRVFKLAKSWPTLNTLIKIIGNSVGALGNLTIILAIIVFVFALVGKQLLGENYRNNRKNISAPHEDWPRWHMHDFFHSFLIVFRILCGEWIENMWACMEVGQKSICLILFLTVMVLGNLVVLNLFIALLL
Sequence of human NaV 1.8 (Q9Y5Y9 1148-1722 limits assumed): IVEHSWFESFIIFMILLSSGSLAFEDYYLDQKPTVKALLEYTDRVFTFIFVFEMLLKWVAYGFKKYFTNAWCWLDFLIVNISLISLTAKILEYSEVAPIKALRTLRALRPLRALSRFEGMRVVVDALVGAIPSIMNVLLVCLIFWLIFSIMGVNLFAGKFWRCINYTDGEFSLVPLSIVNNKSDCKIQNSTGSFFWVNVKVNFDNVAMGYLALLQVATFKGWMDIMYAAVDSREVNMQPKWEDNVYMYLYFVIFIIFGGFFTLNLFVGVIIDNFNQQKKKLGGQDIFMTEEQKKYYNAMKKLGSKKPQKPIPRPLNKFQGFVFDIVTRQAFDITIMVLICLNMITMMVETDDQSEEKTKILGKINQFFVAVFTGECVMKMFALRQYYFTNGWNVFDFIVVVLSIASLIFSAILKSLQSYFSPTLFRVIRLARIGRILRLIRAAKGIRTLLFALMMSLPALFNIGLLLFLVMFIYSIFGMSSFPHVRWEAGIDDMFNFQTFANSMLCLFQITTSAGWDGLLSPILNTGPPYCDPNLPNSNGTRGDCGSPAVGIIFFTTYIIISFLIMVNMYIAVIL

Structure (SMILES)	IC50 [1]	IC50 (in the presence of human serum (compound numbers followed by *), read-out: IC50 in the E-VIPR Assay, performed in the presence of human serum)
COc1c([C@H]2[C@H](C(=O)NCc3cc(C(N)=O)co3)O[C@@](C)(C(F)(F)F)[C@H]2C)ccc(F)c1F [Compound 286, 5-(((2R,3S,4S,5R)-3-(3,4-difluoro-2-methoxyphenyl)-4,5-dimethyl-5-(trifluoromethyl)tetrahydrofuran-2-carboxamido)methyl)furan-3-carboxamide]	≥ 1000 nM	–
COc1c([C@H]2[C@H](C(=O)NCC(O)c3cnn(C)c3)O[C@@](C)(C(F)(F)F)[C@H]2C)ccc(F)c1F (stereo partly drawn) [Compound 301, (2R,3S,4S,5R)-3-(3,4-difluoro-2-methoxyphenyl)-N-(2-hydroxy-2-(1-methyl-1H-pyrazol-4-yl)ethyl)-4,5-dimethyl-5-(trifluoromethyl)tetrahydrofuran-2-carboxamide]	≥ 1000 nM	–
CCOc1c([C@@H]2C[C@](C)(C(F)(F)F)O[C@H]2C(=O)Nc2ccnc(C(O)CO)c2)ccc(F)c1F (single isomer, unassigned) [Compound 710]	10 to 100 nM	–
COCC(NC(C)C)c1ccc(NC(=O)[C@@H]2O[C@@](C)(C(F)(F)F)[C@@H](C)[C@H]2c2ccc(F)c(F)c2OC)cn1 (single isomer, unassigned) [Compound 420, rel-(2R*,3S*,4S*,5R*)-3-(3,4-difluoro-2-methoxyphenyl)-N-(6-(1-(isopropylamino)-2-methoxyethyl)pyridin-3-yl)-4,5-dimethyl-5-(trifluoromethyl)-tetrahydrofuran-2-carboxamide]	≥ 1000 nM	–
C[C@H]1[C@@H](c2ccc(F)c(F)c2OCCO)[C@H](C(=O)Nc2ccnc(C(C)(C)O)c2)O[C@@]1(C)C(F)(F)F [Compound 540, (2R,3S,4S,5R)-3-(3,4-difluoro-2-(2-hydroxyethoxy)phenyl)-N-(2-(2-hydroxypropan-2-yl)pyridin-4-yl)-4,5-dimethyl-5-(trifluoromethyl)tetrahydrofuran-2-carboxamide]	< 10 nM	–
COc1c([C@H]2[C@H](C(=O)Nc3ccc4cnnn4c3)O[C@@](C)(C(F)(F)F)[C@H]2C)ccc(F)c1C(F)F (stereo in doubt) [Compound 161, rel-(2R,3S,4S,5R)—N-([1,2,3]triazolo[1,5-a]pyridin-6-yl)-3-(3-(difluoromethyl)-4-fluoro-2-methoxyphenyl)-4,5-dimethyl-5-(trifluoromethyl)tetrahydrofuran-2-carboxamide]	< 10 nM	–
COC1CN(CCOc2c([C@H]3[C@H](C(=O)Nc4conc4C)O[C@@](C)(C(F)(F)F)[C@H]3C)ccc(F)c2F)C1 [Compound 627, (2R,3S,4S,5R)-3-(3,4-difluoro-2-(2-(3-methoxyazetidin-1-yl)ethoxy)phenyl)-4,5-dimethyl-N-(3-methylisoxazol-4-yl)-5-(trifluoromethyl)tetrahydrofuran-2-carboxamide]	10 to 100 nM	–
C[C@H]1[C@@H](c2ccc(F)c(F)c2OC(F)F)[C@H](C(=O)Nc2ccnc(C(O)CO)c2)O[C@@]1(C)C(F)(F)F (single isomer, unassigned) [Compound 82]	< 10 nM	–
C[C@H]1[C@@H](c2ccc(F)c(F)c2O[C@H]2C[C@@H](O)C2)[C@H](C(=O)Nc2ccnnc2)O[C@@]1(C)C(F)(F)F [Compound 658, (2R,3S,4S,5R)-3-(3,4-difluoro-2-((1s,3R)-3-hydroxycyclobutoxy)phenyl)-4,5-dimethyl-N-(pyridazin-4-yl)-5-(trifluoromethyl)tetrahydrofuran-2-carboxamide]	10 to 100 nM	–
COc1c([C@H]2[C@H](C(=O)NCC3COC(C)(C)C3)O[C@@](C)(C(F)(F)F)[C@H]2C)ccc(F)c1F (stereo partly drawn) [Compound 284, (2R,3S,4S,5R)-3-(3,4-difluoro-2-methoxyphenyl)-N-((5,5-dimethyltetrahydrofuran-3-yl)methyl)-4,5-dimethyl-5-(trifluoromethyl)tetrahydrofuran-2-carboxamide]	≥ 1000 nM	–
C[C@H]1[C@@H](c2ccc(F)c(F)c2OCCO)[C@H](C(=O)Nc2ncnc3c2cnn3C(C)(C)C)O[C@@]1(C)C(F)(F)F [Compound 563, (2R,3S,4S,5R)-N-(1-(tert-butyl)-1H-pyrazolo[3,4-d]pyrimidin-4-yl)-3-(3,4-difluoro-2-(2-hydroxyethoxy)phenyl)-4,5-dimethyl-5-(trifluoromethyl)tetrahydrofuran-2-carboxamide]	≥ 1000 nM	–
CNCc1cc(NC(=O)[C@@H]2O[C@@](C)(C(F)(F)F)[C@@H](C)[C@H]2c2ccc(F)c(F)c2OC)c(F)cn1 (single isomer, unassigned) [Compound 13, 3-(3,4-difluoro-2-methoxy-phenyl)-N-[5-fluoro-2-(methylaminomethyl)-4-pyridyl]-4,5-dimethyl-5-(trifluoromethyl)tetrahydrofuran-2-carboxamide]	–	10 to 100 nM
COc1c(C2C(C(=O)Nc3ccn4nnnc4c3)OC(C)(C(F)(F)F)C2C)ccc(F)c1C (racemic) [Compound 132, 3-(4-fluoro-2-methoxy-3-methyl-phenyl)-4,5-dimethyl-N-(tetrazolo[1,5-a]pyridin-7-yl)-5-(trifluoromethyl)tetrahydrofuran-2-carboxamide]	< 10 nM	–
Cc1nn(CCO)cc1NC(=O)[C@@H]1O[C@@](C)(C(F)(F)F)[C@@H](C)[C@H]1c1ccc(F)c(F)c1OC(F)F (single isomer, unassigned) [Compound 76]	10 to 100 nM	–
COc1c([C@@H]2C[C@](C)(C(F)(F)F)O[C@H]2C(=O)Nc2ccnc(C(C)(O)CO)c2)ccc(F)c1F (single isomer, unassigned) [Compound 701]	10 to 100 nM	–
COc1c([C@H]2[C@H](C(=O)Nc3ccnc(N(C)C)c3)O[C@@](C)(C(F)(F)F)[C@H]2C)ccc(F)c1F [Compound 320, (2R,3S,4S,5R)-3-(3,4-difluoro-2-methoxyphenyl)-N-(2-(dimethylamino)-pyridin-4-yl)-4,5-dimethyl-5-(trifluoromethyl)-tetrahydrofuran-2-carboxamide]	10 to 100 nM	–
COc1c([C@H]2[C@H](C(=O)Nc3ccnc(N4C[C@H]5CC[C@H](N5)C4=O)c3)O[C@@](C)(C(F)(F)F)[C@H]2C)ccc(F)c1F (single isomer, unassigned) [Compound 493, rel-(2R*,3S*,4S*,5R*)-3-(3,4-difluoro-2-methoxyphenyl)-4,5-dimethyl-N-(2-((1S,5R)-2-oxo-3,8-diazabicyclo[3.2.1]octan-3-yl)pyridin-4-yl)-5-(trifluoromethyl)tetrahydrofuran-2-carboxamide]	10 to 100 nM	–
COc1c([C@H]2[C@H](C(=O)Nc3ccc(CC4CCOC4)nc3)O[C@@](C)(C(F)(F)F)[C@H]2C)ccc(F)c1F (stereo partly drawn) [Compound 392, (2R,3S,4S,5R)-3-(3,4-difluoro-2-methoxyphenyl)-4,5-dimethyl-N-(6-((tetrahydrofuran-3-yl)methyl)pyridin-3-yl)-5-(trifluoromethyl)-tetrahydrofuran-2-carboxamide]	100 to 1000 nM	–
CCOc1c([C@H]2[C@H](C(=O)Nc3ccnc(S(C)(=N)=O)c3)O[C@@](C)(C(F)(F)F)[C@H]2C)ccc(F)c1F (single isomer, unassigned) [Compound 111]	< 10 nM	–
COc1c([C@H]2[C@H](C(=O)Nc3ccc(-c4nncn4C)nc3)O[C@@](C)(C(F)(F)F)[C@H]2C)ccc(F)c1F [Compound 397, (2R,3S,4S,5R)-3-(3,4-difluoro-2-methoxyphenyl)-4,5-dimethyl-N-(6-(4-methyl-4H-1,2,4-triazol-3-yl)pyridin-3-yl)-5-(trifluoromethyl)-tetrahydrofuran-2-carboxamide]	100 to 1000 nM	–
C[C@H]1[C@@H](c2ccc(F)c(F)c2OCCO)[C@H](C(=O)Nc2ccc(C(F)F)nc2)O[C@@]1(C)C(F)(F)F [Compound 571, (2R,3S,4S,5R)-3-(3,4-difluoro-2-(2-hydroxyethoxy)phenyl)-N-(6-(difluoromethyl)pyridin-3-yl)-4,5-dimethyl-5-(trifluoromethyl)tetrahydrofuran-2-carboxamide]	10 to 100 nM	–
C[C@H]1[C@@H](c2ccc(F)c(F)c2OCCO)[C@H](C(=O)Nc2ccnc(CO)c2)O[C@@]1(C)C(F)(F)F [Compound 537, (2R,3S,4S,5R)-3-(3,4-difluoro-2-(2-hydroxyethoxy)phenyl)-N-(2-(hydroxymethyl)pyridin-4-yl)-4,5-dimethyl-5-(trifluoromethyl)tetrahydrofuran-2-carboxamide]	< 10 nM	–
COc1cc(NC(=O)[C@@H]2O[C@@](C)(C(F)(F)F)[C@@H](C)[C@H]2c2ccc(F)c(F)c2OCCO)c(F)cn1 [Compound 570, (2R,3S,4S,5R)-3-(3,4-difluoro-2-(2-hydroxyethoxy)phenyl)-N-(5-fluoro-2-methoxypyridin-4-yl)-4,5-dimethyl-5-(trifluoromethyl)tetrahydrofuran-2-carboxamide]	10 to 100 nM	–
COc1c([C@H]2[C@H](C(=O)NCC(C)N3CCN(C)CC3)O[C@@](C)(C(F)(F)F)[C@H]2C)ccc(F)c1F (stereo partly drawn) [Compound 293, (2R,3S,4S,5R)-3-(3,4-difluoro-2-methoxyphenyl)-4,5-dimethyl-N-(2-(4-methylpiperazin-1-yl)propyl)-5-(trifluoromethyl)tetrahydrofuran-2-carboxamide]	≥ 1000 nM	–
C[C@H]1[C@@H](c2ccc(F)c(F)c2OCCO)[C@H](C(=O)Nc2ccnnc2)O[C@@]1(C)C(F)(F)F [Compound 576, (2R,3S,4S,5R)-3-[3,4-difluoro-2-(2-hydroxyethoxy)phenyl]-4,5-dimethyl-N-pyridazin-4-yl-5-(trifluoromethyl)tetrahydrofuran-2-carboxamide]	< 10 nM	–
COc1c([C@H]2[C@H](C(=O)Nc3ccc(NS(C)(=O)=O)nc3)O[C@@](C)(C(F)(F)F)[C@H]2C)ccc(F)c1F [Compound 526, (2R,3S,4S,5R)-3-(3,4-difluoro-2-methoxy-phenyl)-N-[6-(methanesulfonamido)-3-pyridyl]-4,5-dimethyl-5-(trifluoromethyl)tetrahydrofuran-2-carboxamide]	10 to 100 nM	–
